Assay: Pharmacokinetic evaluation in mice, single intragastric administration
Type: in vivo, CD-1 mice (male)
Conditions: 300 mpk, male CD-1 mice, plasma
Procedure: Experimental Purposes: To Test the Pharmacokinetics of the Compound in Mice
CD-1 mice (male), vehicle (0.5% (w/v) methylcellulose 0.5% (v/v) Tween 80 aqueous solution), trifluoroacetate salt of compound 0027.
Animals in groups 1 and 2 were given 5 mg/mL and 30 mg/mL compound by single intragastric administration, respectively, with a dose volume of 10 mL/kg.
The animals were weighed before administration, and the administration volume was calculated according to the body weight.
Whole blood samples (30 μL) were collected at specified times (0.25, 0.5, 1, 2, 4, 6, 8, 24 hours) by saphenous vein collection and the actual time of collection was recorded in the test record. The acceptable error for the collection time points was ±1 minute for time points within 1 hour of administration and ±5% of the theoretical time for other time points.
All blood samples were immediately transferred to labeled commercial centrifuge tubes containing K2-EDTA. After blood samples were collected, the blood samples were centrifugated at 4° C. and 3200 rpm for 10 minutes, and the supernatant plasma was aspirated, and then quickly put into dry ice at a temperature of −20° C. or lower for LC-MS/MS analysis. And the pharmacokinetic parameters were calculated, and experimental result: See Table 5.

For `COc1cc(OC)c(Cl)c(-c2nc(-c3nc(-c4cn(C)nc4C)cnc3N)cn(C)c2=O)c1`, the Tlast was 24.0 h.
